Experimental data as given in patent publication US20050025841A1, “Therapeutic methods using herbal compositions” (priority 2001, published 2005).

Tests used:
[1] = tested on: polychromatic erythrocytes in the mouse bone marrow; details: CTX 30 mg/kg alone; 8000 cells
breast cancer = details: women at high risk of breast cancer, versus placebo; cited from earlier work

Row | Structure (SMILES) | Micronucleus Rate [1] [%0] | decrease in invasive cancer (breast cancer) [%] | decrease in non-invasive breast cancer (breast cancer) [%]
1 | O=P1(N(CCCl)CCCl)NCCCO1 (stereo not drawn) [CTX, cyclophosphamide] | 17.3 ± 1.1 | – | –
2 | CC/C(=C(\c1ccccc1)c1ccc(OCCN(C)C)cc1)c1ccccc1 [Tamoxifen] | – | 49 | 50
